In the supplement of paper PMC11208160:

experiment: recombinant UMI read abundance after kanamycin selection (control-corrected) (log10(CPM+1)); higher = more efficient recombination; extreme values may be limits of the assay; sequences stand for … in AGTGCAGAGAAAATCGGCCAGTTTTCTCTGCCTGCAGTCCGCATGCCGTGGGACCCCTTGGGTTCTAACCTGTTGCCTAGATTTATGCAGCGGACTGCCTTTCTCCCAAAGTGATAAACCGG…AGGTTGGTTTCACT; site = the 11-nt donor
Procedure, shortened: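 Values, expressed as log10(CPM+1), derive from recombinant UMI counts converted to CPM, averaged across replicates and scaled by control-derived factors. Plating was with IPTG (0.07 mM) plus kanamycin or unselected, two replicates each. The screen pooled donor and donor-binding-loop pairs for the IS621 bridge recombinase in Escherichia coli.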
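Further: IS621 bridge recombinase in Escherichia coli cells against a fixed T5 target plasmid.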

Sequence	recombinant UMI read abundance (log10)
GGCCGATCATGGACCGGTTTTCCCGGTAATCCGTATTTGCG (site GGCCGATCTCG)	1.88
GGCCGATCATGGACCGGTTTTCCCGGTAATCCGTATTTGTC (site GGCCGATCTGA)	0.695
GGCCGTGCATGGACCGGTTTTCCCGGTAATCCGTATTTGCC (site GGCCGTGCTGG)	1.16
GGCCTCCCATGGACCGGTTTTCCCGGTAATCCGTATTTGTT (site GGCCACCCTAA)	0.0137
GGCCTCCCATGGACCGGTTTTCCCGGTAATCCGTATTTGTT (site GGCCCCCCTAA)	0
GGCCTCCCATGGACCGGTTTTCCCGGTAATCCGTATTTGTT (site GGCCGCCCTAA)	0.0206
GGCCTCCCATGGACCGGTTTTCCCGGTAATCCGTATTTGTT (site GGCCTCCCTAA)	0.00625
GGCGAACCATGGACCGGTTTTCCCGGTAATCCGTATTTGAC (site GGCGAACCTGT)	0
GGCGAACCATGGACCGGTTTTCCCGGTAATCCGTATTTGGG (site GGCGAACCTCC)	0
GGCGACCCATGGACCGGTTTTCCCGGTAATCCGTATTTGTT (site GGCAACCCTAA)	0
GGCGACCCATGGACCGGTTTTCCCGGTAATCCGTATTTGTT (site GGCCACCCTAA)	0.0153
GGCGACCCATGGACCGGTTTTCCCGGTAATCCGTATTTGTT (site GGCGACCCTAA)	0.263
GGCGACCCATGGACCGGTTTTCCCGGTAATCCGTATTTGTT (site GGCTACCCTAA)	0.0186
GGCGAGGCATGGACCGGTTTTCCCGGTAATCCGTATTTGTC (site GGCGAGGCTGA)	2.23
GGCGATACATGGACCGGTTTTCCCGGTAATCCGTATTTGTT (site GGCGATACTAA)	1.81
GGCGCACCATGGACCGGTTTTCCCGGTAATCCGTATTTGCA (site GGAGCACCTTG)	0
GGCGCACCATGGACCGGTTTTCCCGGTAATCCGTATTTGCA (site GGCGCACCTTG)	0
GGCGCACCATGGACCGGTTTTCCCGGTAATCCGTATTTGCA (site GGGGCACCTTG)	0
GGCGCACCATGGACCGGTTTTCCCGGTAATCCGTATTTGCA (site GGTGCACCTTG)	0.00254
GGCGCAGCATGGACCGGTTTTCCCGGTAATCCGTATTTGTT (site GGCGCAGCTAA)	0.794
GGCTAATCATGGACCGGTTTTCCCGGTAATCCGTATTTGAT (site GGCTAATCTAT)	0.935
GGCTACTCATGGACCGGTTTTCCCGGTAATCCGTATTTGCT (site GGCTACTCTAG)	2.43
GGCTCTACATGGACCGGTTTTCCCGGTAATCCGTATTTGGT (site GGCTCTACTAC)	0
GGCTTGGCATGGACCGGTTTTCCCGGTAATCCGTATTTGGT (site GGCTTGGCTAC)	0.216
GGGAATACATGGACCGGTTTTCCCGGTAATCCGTATTTGCA (site AGGAAGACTTG)	0

Sequence	recombinant UMI read abundance (log10)
GGGAATACATGGACCGGTTTTCCCGGTAATCCGTATTTGCA (site GGGAATACTTG)	1.37
GGGAATACATGGACCGGTTTTCCCGGTAATCCGTATTTGTT (site CGGAATCCTAA)	0
GGGAATACATGGACCGGTTTTCCCGGTAATCCGTATTTGTT (site GGGAATACTAA)	1.29
GGGAATCCATGGACCGGTTTTCCCGGTAATCCGTATTTGAA (site GGAAATCCTTT)	0.0039
GGGAATCCATGGACCGGTTTTCCCGGTAATCCGTATTTGAA (site GGCAATCCTTT)	0.00362
GGGAATCCATGGACCGGTTTTCCCGGTAATCCGTATTTGAA (site GGGAATCCTTT)	0.808
GGGAATCCATGGACCGGTTTTCCCGGTAATCCGTATTTGAA (site GGTAATCCTTT)	0.0108
GGGACATCATGGACCGGTTTTCCCGGTAATCCGTATTTGCT (site AGGACATCTAG)	0
GGGACATCATGGACCGGTTTTCCCGGTAATCCGTATTTGCT (site CGGACATCTAG)	0
GGGACATCATGGACCGGTTTTCCCGGTAATCCGTATTTGCT (site GGGACATCTAG)	1.43
GGGACATCATGGACCGGTTTTCCCGGTAATCCGTATTTGCT (site TGGACATCTAG)	0
GGGACTACATGGACCGGTTTTCCCGGTAATCCGTATTTGCA (site GGGACTACTTG)	1.67
GGGACTTCATGGACCGGTTTTCCCGGTAATCCGTATTTGTG (site GGGACTTCTCA)	0.746
GGGATCGCATGGACCGGTTTTCCCGGTAATCCGTATTTGCT (site GGGATCGCTAG)	3.09
GGGATGACATGGACCGGTTTTCCCGGTAATCCGTATTTGAG (site GGGATGACTCT)	1.86
GGGATGCCATGGACCGGTTTTCCCGGTAATCCGTATTTGGC (site GGGATGCCTGC)	0
GGGCAACCATGGACCGGTTTTCCCGGTAATCCGTATTTGCG (site GGGCAACCTCG)	0
GGGCAGACATGGACCGGTTTTCCCGGTAATCCGTATTTGCA (site AGGAAGACTTG)	0.0416
GGGCAGACATGGACCGGTTTTCCCGGTAATCCGTATTTGCA (site GGGCAGACTTG)	2.58
GGGGAACCATGGACCGGTTTTCCCGGTAATCCGTATTTGCA (site GGGGAACCTTG)	0
GGGGAACCATGGACCGGTTTTCCCGGTAATCCGTATTTGCA (site GGGGCACCTTG)	0
GGGGAACCATGGACCGGTTTTCCCGGTAATCCGTATTTGCA (site GGGGGACCTTG)	0
GGGGAACCATGGACCGGTTTTCCCGGTAATCCGTATTTGCA (site GGGGTACCTTG)	0
GGGGAATCATGGACCGGTTTTCCCGGTAATCCGTATTTGGG (site GGGGAATCTCC)	0.39
GGGGCAACATGGACCGGTTTTCCCGGTAATCCGTATTTGTC (site GGGGCAACTGA)	1.94

Sequence	recombinant UMI read abundance (log10)
GGGGTAACATGGACCGGTTTTCCCGGTAATCCGTATTTGGG (site GGGGTAACTCC)	0.597
GGGGTTGCATGGACCGGTTTTCCCGGTAATCCGTATTTGCG (site GGGGTTGCTCG)	1.75
GGGTACACATGGACCGGTTTTCCCGGTAATCCGTATTTGGC (site GGGTACACTGC)	3.08
GGGTCGGCATGGACCGGTTTTCCCGGTAATCCGTATTTGGC (site GGGTCGGCTGC)	2.18
GGGTGTTCATGGACCGGTTTTCCCGGTAATCCGTATTTGTT (site GGGTGTTCTAA)	1.1
GGGTTGACATGGACCGGTTTTCCCGGTAATCCGTATTTGAA (site GGGTTGACTTT)	0.979
GGTAAGTCATGGACCGGTTTTCCCGGTAATCCGTATTTGTT (site GGTAAGTCTAA)	1.98
GGTAAGTCATGGACCGGTTTTCCCGGTAATCCGTATTTGTT (site GGTACGTCTAA)	0.00407
GGTAAGTCATGGACCGGTTTTCCCGGTAATCCGTATTTGTT (site GGTAGGTCTAA)	0.00944
GGTAAGTCATGGACCGGTTTTCCCGGTAATCCGTATTTGTT (site GGTATGTCTAA)	0.00986
GGTAATCCATGGACCGGTTTTCCCGGTAATCCGTATTTGAA (site GGAAATCCTTT)	0.00275
GGTAATCCATGGACCGGTTTTCCCGGTAATCCGTATTTGAA (site GGCAATCCTTT)	0.58
GGTAATCCATGGACCGGTTTTCCCGGTAATCCGTATTTGAA (site GGGAATCCTTT)	0.00622
GGTAATCCATGGACCGGTTTTCCCGGTAATCCGTATTTGAA (site GGTAATCCTTT)	0.27
GGTACATCATGGACCGGTTTTCCCGGTAATCCGTATTTGAG (site GGTACATCTCT)	0.66
GGTACGACATGGACCGGTTTTCCCGGTAATCCGTATTTGTT (site GGTACGACTAA)	0.444
GGTACGACATGGACCGGTTTTCCCGGTAATCCGTATTTGTT (site GGTACGCCTAA)	0.0177
GGTACGACATGGACCGGTTTTCCCGGTAATCCGTATTTGTT (site GGTACGGCTAA)	0.0185
GGTACGACATGGACCGGTTTTCCCGGTAATCCGTATTTGTT (site GGTACGTCTAA)	0.0179
GGTACGTCATGGACCGGTTTTCCCGGTAATCCGTATTTGTC (site GGTACGTCTAA)	0.0158
GGTACGTCATGGACCGGTTTTCCCGGTAATCCGTATTTGTC (site GGTACGTCTCA)	0.0113
GGTACGTCATGGACCGGTTTTCCCGGTAATCCGTATTTGTC (site GGTACGTCTGA)	0.0103
GGTACGTCATGGACCGGTTTTCCCGGTAATCCGTATTTGTC (site GGTACGTCTTA)	0.0125
GGTATGCCATGGACCGGTTTTCCCGGTAATCCGTATTTGAC (site GGTATGCCTGT)	0
GGTATTTCATGGACCGGTTTTCCCGGTAATCCGTATTTGAA (site GGTATTTCTTT)	0
